Source: patent US20120190615A1, “METHODS AND COMPOSITIONS FOR INDUCING WEIGHT LOSS” (Sanford-Burnham Medical Research Institute, priority 2011, published 2012)

Tested on: C3H10T1/2 mesenchymal stem cells
Assay: Brown fat differentiation of C3H10T1/2 mesenchymal stem cells (Oil Red O, immunoblot, qRT-PCR, MitoTracker)
Format: cell-based, mouse
Description: OXR1 expression was confirmed in the undifferentiated mesenchymal stem cell line C3H10T1/2 cells (ATCC). Cells were grown to 50-70% confluence in high glucose DMEM supplemented with 10% FBS and differentiated in standard induction media supplemented with 100 nM human orexin A (cat. No. 24470, Anaspec), vehicle, or recombinant human BMP-7 (cat. No. 4579, BioVision, a potent inducer of […] differentiation) for three days, at which time cells reached 100% confluence. Cells were then incubated in adipogenic media for 7 days in the absence of […]. Cells were then stained with Oil Red O according to the following protocol. Cells were washed twice with phosphate-buffered saline (PBS), fixed with 10% buffered formalin for 1 hour at room temperature, washed twice in PBS, stained for 30 minutes at room temperature with a filtered Oil red O (Sigma) solution (0.5% Oil red O in isopropyl alcohol), washed twice with PBS, and stored in PBS for visualization under the inverted microscope (Olympus).
Following OX treatment, greater than 90% of cells differentiated from an elongated fibroblastic morphology to a spherical one typical of differentiated fat cells. OXR1 expression in the differentiated mesenchymal cells was done using RT-PCR analysis of the OXR1 mRNA. FIG. 4 provides the Ct value OXR1 and the Ct value for 18S RNA is shown for comparison.
To determine triglyceride content, BAT was homogenized in 1 ml of saline solution and Triglycerides Reagent Kit (Pointe Scientific) was used to determine triglyceride concentration in the tissue.
Protein extracts from the treated mesenchymal cells was used to assess the expression of early adipogenic transcription factors that are known to function in adipogenesis. Specifically, immunoblotting was used to assess the expression of C/ebp-alpha, Ppar-γ1, Prdm16, Pgc1-alpha, and Ucp1 in the differentiated mesenchymal stem cells.
The expression of several adipogenic inhibitors was assessed in the differentiated mesenchymal stem cells and control cells by qRT-PCR. Undifferentiated C3H10T1/2 cells abundantly express Necdin, preadpocyte factor-1 (Pref-1), and Wnt10a, all of which inhibit early adipogenic events. Preadipocytes must counteract an adipogenic block imposed by these factors in order to differentiate. […] FIG. 6 illustrates results from a PCR analysis of adipogenic inhibitors in C3H10T1/2 cells treated with BMP-7 or OX for 3 days followed by adipogenic induction for 7 days. Data are expressed as arbitrary units after normalization to 18S RNA.
The cultured mesenchymal stem cells were assessed for the expression of a variety of regulators of adipogenesis and mitochondrial function, qRT-PCR was performed as follows: RNA was isolated using Trizol lysis reagent (Qiagen) and purified by RNeasy Mini columns (Qiagen), cDNA was produced using an RT-PCR kit (Applied Biosystems) and primers synthesized by Integrated DNA Technologies, and PCR reactions were run in duplicate for each sample and quantified in the ABI Prism 7000 Sequence Detection System (Applied Biosystems) The expression of each RNA was normalized to the 18S RNA level.
Important adipogenic regulators such as C/ebp. […] Mitochondiral transcription factor (Tfam), cytochrome oxidase (Cox7a, Cox8b) and deiodinase-2 expression were elevated before exposure to adipogenic media, as shown in FIG. 10. […] Expression of stearoyl-CoA desaturase (Scd), an enzyme catalyzing the rate-limiting step in lipid biosynthesis, was also elevated over 100-fold during differentiation. mRNAs encoding other markers fatty acid oxidation such as Lp1, Sirt3, Adam15-1 and Adam15-2, and Adipor1 were enriched in differentiated mesenchymal stem cells following OX treatment (FIG. 11).
Based on the foregoing studies, three features distinguish BAT from WAT: the appearance of multilocular oil droplets, mitochondrial enrichment, and Ucp-1 expression. […]

## orexin-A (EPLPDCCRQKTCSCRLYELLHGAGNHAAGILTL) [OX, human orexin A, cat; No. 24470, Anaspec]
100 nM OX 3 days, then adipogenic media 7 days
  cells differentiated from fibroblastic to spherical morphology typical of differentiated fat cells: greater than 90%
MitoTracker staining
  mitochondrial biogenesis: induced extensive mitochondrial biogenesis
During differentiation
  expression of stearoyl-CoA desaturase (Scd), elevation: over 100 fold
Following OX treatment
  rate and extent of cytoplasmic triglyceride accumulation: comparable to that seen following treatment with BMP-7
immunoblotting
  expression of adipogenic transcription factors C/ebp-alpha, Ppar-γ1, Prdm16, Pgc1-alpha, Ucp1: comparable to that induced by BMP-7
qRT-PCR
  Ucp-1 and deiodinase type 2 mRNA expression: induced
qRT-PCR, 3 days treatment then 7 days adipogenic induction
  mRNAs encoding inhibitory factors Necdin, Preadipocyte factor-1, Wnt10a: suppression
qRT-PCR, normalized to 18S RNA
  Pref-1 expression: decreased by two orders of magnitude
qRT-PCR, prior to suppression of adipogenic inhibitors
  adipogenic regulators C/ebp, Prdm16, Ppar-gamma, Foxc2, Zfp423: significantly increased
